Measured values taken from publication PMC5218480 (PLoS ONE, 2017).

Tested on: MV-4-11 cells
Assay: Gene expression microarray analysis (Affymetrix PrimeView) and GSEA
Format: cell-based, human
Parameters: RFU PODN (11730768_x_at) / Fold change /veh PODN (11730768_x_at) / RFU LINC00158 (11744669_a_at) / Fold change /veh LINC00158 (11744669_a_at) / RFU DUSP10 (11751237_a_at) / Fold change /veh DUSP10 (11751237_a_at) / RFU ID3 (11757404_x_at) / Fold change /veh ID3 (11757404_x_at) / RFU PLEKHG5 (11737974_s_at) / Fold change /veh PLEKHG5 (11737974_s_at) / RFU LRRC4B (11730491_at) / Fold change /veh LRRC4B (11730491_at) / RFU GIMAP4 (11747438_a_at) / Fold change /veh GIMAP4 (11747438_a_at) / RFU KRT8 (11758183_x_at) / Fold change /veh KRT8 (11758183_x_at) / RFU CNN1 (11734310_a_at) / Fold change /veh CNN1 (11734310_a_at) / RFU VPS37D (11726825_at) / Fold change /veh VPS37D (11726825_at) / RFU C10orf10 (11716522_x_at) / Fold change /veh C10orf10 (11716522_x_at) / RFU KIR2DL2 /// KIR2DL4 /// KIR2DL5A /// KIR2DL5B /// KIR2DS1 /// KIR2DS2 /// KIR2DS3 /// KIR2DS4 /// KIR3DL3 /// KIR3DL3 /// KIR3DS1 (11738374_at) / Fold change /veh KIR2DL2 /// KIR2DL4 /// KIR2DL5A /// KIR2DL5B /// KIR2DS1 /// KIR2DS2 /// KIR2DS3 /// KIR2DS4 /// KIR3DL3 /// KIR3DL3 /// KIR3DS1 (11738374_at) / RFU C1QL1 (11718748_at) / Fold change /veh C1QL1 (11718748_at) / RFU TMPRSS4 (11747572_a_at) / Fold change /veh TMPRSS4 (11747572_a_at) / RFU HAMP (11756126_x_at) / Fold change /veh HAMP (11756126_x_at) / RFU RNFT2 (11725882_a_at) / Fold change /veh RNFT2 (11725882_a_at) / RFU NR4A2 (11747474_a_at) / Fold change /veh NR4A2 (11747474_a_at) / RFU ABCC12 (11746883_a_at) / Fold change /veh ABCC12 (11746883_a_at) / RFU TMEM136 (11760407_x_at) / Fold change /veh TMEM136 (11760407_x_at) / RFU CLDN22 /// WWC2 (11732394_at) / Fold change /veh CLDN22 /// WWC2 (11732394_at) / RFU HLA-DPB1 (11760878_x_at) / Fold change /veh HLA-DPB1 (11760878_x_at) / RFU SPINT1 (11716480_a_at) / Fold change /veh SPINT1 (11716480_a_at) / RFU GAP43 (11754022_s_at) / Fold change /veh GAP43 (11754022_s_at) / RFU A4GNT (11735810_at) / Fold change /veh A4GNT (11735810_at) / RFU PRB3 (11715151_x_at) / Fold change /veh PRB3 (11715151_x_at) / RFU TUBB4B (11761932_at) / Fold change /veh TUBB4B (11761932_at) / RFU CAPN14 (11732068_a_at) / Fold change /veh CAPN14 (11732068_a_at) / RFU TMCC2 (11721928_a_at) / Fold change /veh TMCC2 (11721928_a_at) / RFU IRGQ (11745062_a_at) / Fold change /veh IRGQ (11745062_a_at) / RFU FAM174B (11720279_a_at) / Fold change /veh FAM174B (11720279_a_at) / RFU TMPRSS4 (11748680_a_at) / Fold change /veh TMPRSS4 (11748680_a_at) / RFU FAM212B (11763350_a_at) / Fold change /veh FAM212B (11763350_a_at) / RFU PLEKHG5 (11743358_a_at) / Fold change /veh PLEKHG5 (11743358_a_at) / RFU ZSCAN30 (11745921_a_at) / Fold change /veh ZSCAN30 (11745921_a_at) / RFU CMKLR1 (11741424_a_at) / Fold change /veh CMKLR1 (11741424_a_at) / RFU LOC101060620 /// MAPK8IP1 (11723275_at) / Fold change /veh LOC101060620 /// MAPK8IP1 (11723275_at) / RFU SPTSSB (11747773_x_at) / Fold change /veh SPTSSB (11747773_x_at) / RFU PRSS12 (11739890_at) / Fold change /veh PRSS12 (11739890_at) / RFU BIN1 (11741810_x_at) / Fold change /veh BIN1 (11741810_x_at) / RFU WNT11 (11732464_a_at) / Fold change /veh WNT11 (11732464_a_at) / RFU C10orf10 (11716521_a_at) / Fold change /veh C10orf10 (11716521_a_at) / RFU C5orf56 (11738089_at) / Fold change /veh C5orf56 (11738089_at) / RFU CYB561 (11721691_x_at) / Fold change /veh CYB561 (11721691_x_at) / RFU ANKRD19P (11752326_a_at) / Fold change /veh ANKRD19P (11752326_a_at) / RFU OR2T12 /// OR2T33 /// OR2T8 (11738714_s_at) / Fold change /veh OR2T12 /// OR2T33 /// OR2T8 (11738714_s_at) / RFU VCAN (11748164_a_at) / Fold change /veh VCAN (11748164_a_at) / RFU JSRP1 (11732532_at) / Fold change /veh JSRP1 (11732532_at) / RFU KRTAP10-11 (11738290_x_at) / Fold change /veh KRTAP10-11 (11738290_x_at) / RFU MYO3A (11730013_a_at) / Fold change /veh MYO3A (11730013_a_at) / RFU EBF3 (11725865_a_at) / Fold change /veh EBF3 (11725865_a_at) / RFU CAMK2N1 (11719241_x_at) / Fold change /veh CAMK2N1 (11719241_x_at) / RFU C5orf56 (11738088_a_at) / Fold change /veh C5orf56 (11738088_a_at) / RFU OLFML3 (11715873_a_at) / Fold change /veh OLFML3 (11715873_a_at) / RFU LOC100653217 /// NTM (11731650_a_at) / Fold change /veh LOC100653217 /// NTM (11731650_a_at) / RFU MAPK11 (11762145_a_at) / Fold change /veh MAPK11 (11762145_a_at) / RFU FIZ1 (11724087_x_at) / Fold change /veh FIZ1 (11724087_x_at) / RFU OASL (11726364_x_at) / Fold change /veh OASL (11726364_x_at) / RFU SOX15 (11748057_x_at) / Fold change /veh SOX15 (11748057_x_at) / RFU CD79A (11719716_a_at) / Fold change /veh CD79A (11719716_a_at) / RFU HIST1H1D (11736915_at) / Fold change /veh HIST1H1D (11736915_at) / RFU CASKIN2 (11723855_a_at) / Fold change /veh CASKIN2 (11723855_a_at) / RFU LOC730098 (11760151_x_at) / Fold change /veh LOC730098 (11760151_x_at) / RFU OR4N2 (11742367_at) / Fold change /veh OR4N2 (11742367_at) / RFU PRRT2 (11749266_a_at) / Fold change /veh PRRT2 (11749266_a_at) / RFU SNX32 (11753110_a_at) / Fold change /veh SNX32 (11753110_a_at) / RFU CDHR5 (11726645_a_at) / Fold change /veh CDHR5 (11726645_a_at) / RFU RCAN1 (11760418_a_at) / Fold change /veh RCAN1 (11760418_a_at) / RFU FAM167A (11723789_a_at) / Fold change /veh FAM167A (11723789_a_at) / RFU FAM26E (11764081_at) / Fold change /veh FAM26E (11764081_at) / RFU ISYNA1 (11749810_s_at) / Fold change /veh ISYNA1 (11749810_s_at) / RFU ACY1 (11761880_at) / Fold change /veh ACY1 (11761880_at) / RFU 11764098_at / Fold change /veh 11764098_at / RFU SAMD14 (11745864_x_at) / Fold change /veh SAMD14 (11745864_x_at) / RFU NPB (11741838_a_at) / Fold change /veh NPB (11741838_a_at) / RFU TMPRSS6 (11731388_a_at) / Fold change /veh TMPRSS6 (11731388_a_at) / RFU KRTAP10-2 (11738614_at) / Fold change /veh KRTAP10-2 (11738614_at) / RFU ARHGAP8 /// PRR5-ARHGAP8 (11727945_x_at) / Fold change /veh ARHGAP8 /// PRR5-ARHGAP8 (11727945_x_at) / RFU KRTAP5-7 /// NADSYN1 (11734609_at) / Fold change /veh KRTAP5-7 /// NADSYN1 (11734609_at) / RFU RASL12 (11751679_a_at) / Fold change /veh RASL12 (11751679_a_at) / RFU CDKN2B (11736163_a_at) / Fold change /veh CDKN2B (11736163_a_at) / RFU PRF1 (11729649_at) / Fold change /veh PRF1 (11729649_at) / RFU, ZNF638 /// ZNF638-IT1 / Fold change vs veh, ZNF638 /// ZNF638-IT1 / RFU, PANK3 / Fold change vs veh, PANK3 / RFU, SH3YL1 / Fold change vs veh, SH3YL1 / RFU, ZEB2 / Fold change vs veh, ZEB2 / RFU, NRIP1 / Fold change vs veh, NRIP1 / RFU, PTTG1IP / Fold change vs veh, PTTG1IP / RFU, CAPN2 / Fold change vs veh, CAPN2 / RFU, MED14 / Fold change vs veh, MED14 / RFU, SNORA58 / Fold change vs veh, SNORA58 / RFU, C1orf63 / Fold change vs veh, C1orf63 / RFU, LRRFIP1 / Fold change vs veh, LRRFIP1 / RFU, NDUFAF7 / Fold change vs veh, NDUFAF7 / RFU, SLC12A2 / Fold change vs veh, SLC12A2 / RFU, IBTK / Fold change vs veh, IBTK / RFU, ESF1 / Fold change vs veh, ESF1 / Fold change vs veh, TMEM50B / RFU, TAOK1 / Fold change vs veh, TAOK1 / RFU, ACBD3 / Fold change vs veh, ACBD3 / RFU, TMA16 / Fold change vs veh, TMA16 / RFU, RWDD3 / Fold change vs veh, RWDD3 / RFU, BCAT1 / Fold change vs veh, BCAT1 / RFU, EDEM3 / Fold change vs veh, EDEM3 / RFU, TMEM33 / Fold change vs veh, TMEM33 / RFU, WDR75 / Fold change vs veh, WDR75 / RFU, AHCTF1 / Fold change vs veh, AHCTF1 / RFU, TFRC / Fold change vs veh, TFRC / RFU, ZDHHC17 / Fold change vs veh, ZDHHC17 / RFU, NOM1 / Fold change vs veh, NOM1 / RFU, ARL8B / Fold change vs veh, ARL8B / RFU, ZBTB11 / Fold change vs veh, ZBTB11 / RFU, TAMM41 / Fold change vs veh, TAMM41 / RFU, KIAA1704 /// LOC100996395 / Fold change vs veh, KIAA1704 /// LOC100996395 / RFU, ING1 / Fold change vs veh, ING1 / RFU, TRMT61B / Fold change vs veh, TRMT61B / RFU, FUBP3 / Fold change vs veh, FUBP3 / RFU, TP53 / Fold change vs veh, TP53 / RFU, TNKS2 / Fold change vs veh, TNKS2 / RFU, ZFP14 / Fold change vs veh, ZFP14 / RFU, ACTR2 / Fold change vs veh, ACTR2 / RFU, PPP3R1 / Fold change vs veh, PPP3R1 / RFU, PIK3R1 / Fold change vs veh, PIK3R1 / RFU, HNRNPA1 / Fold change vs veh, HNRNPA1 / RFU, RNF170 / Fold change vs veh, RNF170 / RFU, ZNF28 / Fold change vs veh, ZNF28 / RFU, RNGTT / Fold change vs veh, RNGTT / RFU, OGT / Fold change vs veh, OGT / RFU, BRD1 / Fold change vs veh, BRD1 / RFU, MARS / Fold change vs veh, MARS / RFU, ZNF655 / Fold change vs veh, ZNF655 / RFU, FAHD1 / Fold change vs veh, FAHD1 / RFU, BDP1 / Fold change vs veh, BDP1 / RFU, LRRCC1 / Fold change vs veh, LRRCC1 / RFU, ARID1A / Fold change vs veh, ARID1A / RFU, ZNF146 / Fold change vs veh, ZNF146 / RFU, ZNF330 / Fold change vs veh, ZNF330 / RFU, GPN3 / Fold change vs veh, GPN3 / RFU, C9orf123 / Fold change vs veh, C9orf123 / RFU, N4BP2L2 / Fold change vs veh, N4BP2L2 / RFU, ARFIP1 / Fold change vs veh, ARFIP1 / RFU, FAM179B / Fold change vs veh, FAM179B / RFU, BCL10 / Fold change vs veh, BCL10 / RFU, UHRF1BP1L / Fold change vs veh, UHRF1BP1L / RFU, BET1 / Fold change vs veh, BET1 / RFU, CNOT2 / Fold change vs veh, CNOT2 / RFU, ZNF268 / Fold change vs veh, ZNF268 / Fold change vs veh, ZNF507 / RFU, DGCR2 / Fold change vs veh, DGCR2 / RFU, WDSUB1 / Fold change vs veh, WDSUB1 / Fold change vs veh, HSP90B1 /// MIR3652 / RFU, ADSS / Fold change vs veh, ADSS / RFU, GK / Fold change vs veh, GK / RFU, ZNF148 / Fold change vs veh, ZNF148 / RFU, TAF9 / Fold change vs veh, TAF9 / RFU, SLC1A5 / Fold change vs veh, SLC1A5 / RFU, SLMO2 / Fold change vs veh, SLMO2 / RFU, ABCC4 / Fold change vs veh, ABCC4 / RFU, LOC101060439 /// RAP1B / Fold change vs veh, LOC101060439 /// RAP1B / RFU, RFX7 / Fold change vs veh, RFX7 / RFU, GTPBP10 / Fold change vs veh, GTPBP10 / RFU, CNEP1R1 / Fold change vs veh, CNEP1R1 / RFU, BIVM-ERCC5 /// ERCC5 / Fold change vs veh, BIVM-ERCC5 /// ERCC5 / RFU, ILF3 / Fold change vs veh, ILF3 / RFU 11762660_at / Fold change /veh 11762660_at / RFU VCAN (11757783_s_at) / Fold change /veh VCAN (11757783_s_at) / RFU DDX43 (11728927_at) / Fold change /veh DDX43 (11728927_at) / RFU KRT8 (11758188_x_at) / Fold change /veh KRT8 (11758188_x_at) / RFU NKD1 (11759106_at) / Fold change /veh NKD1 (11759106_at) / RFU SRD5A1 (11742802_a_at) / Fold change /veh SRD5A1 (11742802_a_at) / RFU TPSAB1 /// TPSB2 (11721975_s_at) / Fold change /veh TPSAB1 /// TPSB2 (11721975_s_at) / RFU GSTM3 (11746129_a_at) / Fold change /veh GSTM3 (11746129_a_at) / RFU IL23R (11737362_x_at) / Fold change /veh IL23R (11737362_x_at) / RFU TMEM51 (11727254_a_at) / Fold change /veh TMEM51 (11727254_a_at) / RFU PIWIL2 (11732686_x_at) / Fold change /veh PIWIL2 (11732686_x_at) / RFU ORM1 (11744905_x_at) / Fold change /veh ORM1 (11744905_x_at) / RFU CCDC152 (11743942_at) / Fold change /veh CCDC152 (11743942_at) / RFU ECM1 (11717891_a_at) / Fold change /veh ECM1 (11717891_a_at) / RFU IL23R (11748794_a_at) / Fold change /veh IL23R (11748794_a_at) / RFU TNFAIP8L3 (11732012_x_at) / Fold change /veh TNFAIP8L3 (11732012_x_at) / RFU MBOAT4 (11741988_at) / Fold change /veh MBOAT4 (11741988_at) / RFU 11764193_at / Fold change /veh 11764193_at / RFU TMEM53 (11763286_at) / Fold change /veh TMEM53 (11763286_at) / RFU MAGEB2 (11727129_at) / Fold change /veh MAGEB2 (11727129_at) / RFU TMEM200A (11744735_a_at) / Fold change /veh TMEM200A (11744735_a_at) / RFU CCDC152 (11751479_a_at) / Fold change /veh CCDC152 (11751479_a_at) / RFU FAM211A (11726209_a_at) / Fold change /veh FAM211A (11726209_a_at) / RFU RGS16 (11746705_a_at) / Fold change /veh RGS16 (11746705_a_at) / RFU VCAN (11755009_s_at) / Fold change /veh VCAN (11755009_s_at) / RFU RHOB (11743442_s_at) / Fold change /veh RHOB (11743442_s_at) / RFU RGS16 (11720943_a_at) / Fold change /veh RGS16 (11720943_a_at) / RFU RGS16 (11720944_at) / Fold change /veh RGS16 (11720944_at) / RFU, VPS4B / Fold change vs veh, VPS4B / RFU, CREB1 / Fold change vs veh, CREB1 / RFU, DNAJC13 / Fold change vs veh, DNAJC13 / RFU, GNAQ / Fold change vs veh, GNAQ / RFU, CDK5R1 / Fold change vs veh, CDK5R1 / RFU, ZRANB3 / Fold change vs veh, ZRANB3 / RFU, CUL4A / Fold change vs veh, CUL4A / RFU, CCNY / Fold change vs veh, CCNY / RFU, UFL1 / Fold change vs veh, UFL1 / RFU, COG3 / Fold change vs veh, COG3 / RFU, DIAPH2 / Fold change vs veh, DIAPH2 / RFU, SKA2 / Fold change vs veh, SKA2 / RFU, AFF3 / Fold change vs veh, AFF3 / RFU, LMF1 / Fold change vs veh, LMF1 / RFU, IPO11 / Fold change vs veh, IPO11 / RFU, DFFB / Fold change vs veh, DFFB / RFU, FOXP1 / Fold change vs veh, FOXP1 / RFU, CARD8 / Fold change vs veh, CARD8 / RFU, STRN3 / Fold change vs veh, STRN3 / RFU, ADK / Fold change vs veh, ADK / RFU, RASSF2 / Fold change vs veh, RASSF2 / RFU, WIPF1 / Fold change vs veh, WIPF1 / RFU, LARP1B / Fold change vs veh, LARP1B / RFU, RASA1 / Fold change vs veh, RASA1 / RFU, RB1 / Fold change vs veh, RB1 / RFU, PPFIA1 / Fold change vs veh, PPFIA1 / RFU, MAT2A / Fold change vs veh, MAT2A / RFU, CCT5 / Fold change vs veh, CCT5 / RFU, WDR92 / Fold change vs veh, WDR92 / RFU, CUX1 / Fold change vs veh, CUX1 / RFU, TTC7A / Fold change vs veh, TTC7A / RFU, TMEM135 / Fold change vs veh, TMEM135 / RFU, DEPTOR / Fold change vs veh, DEPTOR / RFU, CPM / Fold change vs veh, CPM / RFU, DNAJB6 / Fold change vs veh, DNAJB6 / RFU, CACNA2D3 / Fold change vs veh, CACNA2D3 / RFU, DTX4 / Fold change vs veh, DTX4 / RFU, TFCP2 / Fold change vs veh, TFCP2 / RFU, GMCL1 /// GMCL1P1 / Fold change vs veh, GMCL1 /// GMCL1P1 / RFU, AEBP2 / Fold change vs veh, AEBP2 / RFU, SNHG1 /// SNORD22 /// SNORD25 /// SNORD26 /// SNORD27 /// SNORD28 /// SNORD29 /// SNORD31 / Fold change vs veh, SNHG1 /// SNORD22 /// SNORD25 /// SNORD26 /// SNORD27 /// SNORD28 /// SNORD29 /// SNORD31 / Fold change (Aza/veh), C12orf56 (ProbeSet 11735607_a_at) / Fold change (ACY-1035/veh), C12orf56 (ProbeSet 11735607_a_at) / Fold change (Aza/veh), FGFR1OP (ProbeSet 11751329_s_at) / Fold change (ACY-1035/veh), FGFR1OP (ProbeSet 11751329_s_at) / Fold change (Aza/veh), VPS36 (ProbeSet 11739960_a_at) / Fold change (ACY-1035/veh), VPS36 (ProbeSet 11739960_a_at) / RFU SYPL1 (11715823_x_at) / Fold change /veh SYPL1 (11715823_x_at) / RFU IGFBP7 (11715501_s_at) / Fold change /veh IGFBP7 (11715501_s_at) / RFU REEP3 (11722064_at) / Fold change /veh REEP3 (11722064_at) / RFU IGLL1 (11728026_x_at) / Fold change /veh IGLL1 (11728026_x_at): dose or concentration left out as unconfirmed
Details: ProbeSet 11724526_at; LIST B

Nc1ccc(-c2cccs2)cc1NC(=O)c1ccc2c(c1)cc(C1CC1)n2CCN1CCOCC1 [ACY-1035]
Fold change vs veh, FAHD1: 1.05
